Results reported in patent publication US10112951B2, “PDE1 inhibitor” (Eli Lilly and Company, priority 2016, dated 2018).

What was measured:
Type in all cases: biochemical
[1] = target: T1, PDE1B (Homo sapiens, UniProt Q01064); experiment: Ca2+-calmodulin dependent PDE enzyme assay (SPA), PDE1B; conditions: [3H]cAMP 47 nM; enzyme 0.074 nM; Ca2+/calmodulin buffer pH 7.5; read-out: IC50 (nM) of Example 1, PDE 1B
T1 construct: full-length human PDE1B (NP_000915.1); His (C); made in house; host or cells: Sf9 (pIEX4)
From the text: (§1) The nucleotide sequences encoding full-length human PDE1A (NP_001003683.1), PDE1C (NP_005011.1), PDE5A (NP_001074.2), PDE7B (NP_061818.1) and PDE9A (NP_002597.1) are inserted into pFastBac1 (Invitrogen) vector with an N-terminal HIS tag. The nucleotide sequences encoding full-length human PDE4D (NP_006194.2) and catalytic domain (residue 641-1141) of PDE3A (NP_000912.3) are inserted into pFastBac1 (Invitrogen) vector with a C-terminal HIS tag. The nucleotide sequences encoding full-length human PDE8A (NP_002596.1) and PDE11A (AAI12394.1) are inserted into pFastBac1 (Invitrogen) vector with an N-terminal Flag tag. The nucleotide sequences encoding full-length human PDE10A (AAD32595.1) are inserted into pFastBac1 (Invitrogen) vector with a C-terminal Flag-His tag. The nucleotide sequences encoding full-length human PDE6A (NP_000431.2) and PDE6B (AAH00249.1) are inserted into pFastBacDual (Invitrogen) vector with an N-terminal HIS tag and N-terminal Flag tag, respectively, for production of PDE6A/6B dimer. […]
(§2) All 3′, 5′ cyclic nucleotide phosphodiesterase (PDE) enzyme activities are measured with a radiometric enzyme assay based on SPA detection system (scintillation proximity assay). […] Samples are read 12 hours later in a MICROBETA™ TRILUX® Counter. […] IC50 values are calculated by plotting the normalized data vs. log [compound] and fitting the data using a four parameter logistic equation. […]

[2] = target: T2, PDE1C (Homo sapiens, UniProt Q14123); experiment: Ca2+-calmodulin dependent PDE enzyme assay (SPA), PDE1C; conditions: [3H]cAMP 47 nM; enzyme 0.0012 nM; Ca2+/calmodulin buffer pH 7.5; read-out: IC50 (nM) of Example 1, PDE 1C
T2 construct: full-length human PDE1A (NP_001003683.1), PDE1C (NP_005011.1); His (N); made in house; host or cells: Sf9 (baculovirus, pFastBac1)
From the text: as §1, §2

[3] = target: T3, PDE11A (Homo sapiens, UniProt Q9HCR9); experiment: PDE enzyme assay using [3H]cGMP as substrate, PDE11A; conditions: [3H]cGMP 80 nM; enzyme 0.03 nM; read-out: IC50 (nM) of Example 1, PDE11A
T3 construct: full-length human PDE8A (NP_002596.1) and PDE11A (AAI12394.1); Flag (N); made in house; host or cells: Sf9 (baculovirus, pFastBac1)
From the text: as §1, with “tag.” for “tag. The nucleotide sequences encoding full-length human PDE6A (NP_000431.2) and PDE6B (AAH00249.1) are inserted into pFastBacDual (Invitrogen) vector with an N-terminal HIS tag and N-terminal Flag tag, respectively, for production of PDE6A/6B dimer.”
(§3) All 3′, 5′ cyclic nucleotide phosphodiesterase (PDE) enzyme activities are measured with a radiometric enzyme assay based on SPA detection system (scintillation proximity assay). […] Samples are read 12 hours later in a MICROBETA™ TRILUX® Counter. […] IC50 values are calculated by plotting the normalized data vs. log [compound] and fitting the data using a four parameter logistic equation.
(§4) The following phosphodiesterase activities are measured using [^3H]cGMP as reaction substrate: PDE2A, PDE5A, PDE6A/6B, PDE9A, PDE10A and PDE11A. […]

[4] = target: T4, PDE2A (Homo sapiens, UniProt O00408); experiment: PDE enzyme assay using [3H]cGMP as substrate, PDE2A; conditions: [3H]cGMP 80 nM; enzyme 0.2 nM; read-out: IC50 (nM) of Example 1, PDE2A
T4 construct: full-length human PDE1B (NP_000915.1) and PDE2A (NP_002590.1); His (C); made in house; host or cells: Sf9 (pIEX4)
T4 sequence (O00408 whole entry): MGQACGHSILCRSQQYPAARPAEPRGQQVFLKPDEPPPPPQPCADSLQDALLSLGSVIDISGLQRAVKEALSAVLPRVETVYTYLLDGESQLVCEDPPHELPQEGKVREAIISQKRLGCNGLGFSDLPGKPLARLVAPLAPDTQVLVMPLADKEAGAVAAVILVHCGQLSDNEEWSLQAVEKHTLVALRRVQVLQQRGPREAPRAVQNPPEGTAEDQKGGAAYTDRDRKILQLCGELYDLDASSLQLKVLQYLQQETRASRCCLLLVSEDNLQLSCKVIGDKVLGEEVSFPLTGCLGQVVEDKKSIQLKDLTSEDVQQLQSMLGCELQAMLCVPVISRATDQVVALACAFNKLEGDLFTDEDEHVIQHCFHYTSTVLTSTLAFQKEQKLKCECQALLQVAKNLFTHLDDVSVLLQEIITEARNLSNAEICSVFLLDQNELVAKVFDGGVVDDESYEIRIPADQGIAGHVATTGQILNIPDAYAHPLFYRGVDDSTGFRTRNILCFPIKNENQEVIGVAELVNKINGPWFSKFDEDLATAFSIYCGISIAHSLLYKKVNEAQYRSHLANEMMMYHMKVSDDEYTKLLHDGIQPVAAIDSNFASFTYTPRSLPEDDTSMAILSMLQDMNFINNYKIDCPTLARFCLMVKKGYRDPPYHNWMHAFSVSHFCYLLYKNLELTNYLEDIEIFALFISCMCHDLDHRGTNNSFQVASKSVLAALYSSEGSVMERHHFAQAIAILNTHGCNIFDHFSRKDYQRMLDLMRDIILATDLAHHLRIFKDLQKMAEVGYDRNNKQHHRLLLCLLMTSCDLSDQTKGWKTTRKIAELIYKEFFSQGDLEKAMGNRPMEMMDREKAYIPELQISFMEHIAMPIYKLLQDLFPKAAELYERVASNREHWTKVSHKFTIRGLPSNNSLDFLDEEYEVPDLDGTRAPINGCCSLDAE
From the text: as §1, with “tag.” for “tag. The nucleotide sequences encoding full-length human PDE6A (NP_000431.2) and PDE6B (AAH00249.1) are inserted into pFastBacDual (Invitrogen) vector with an N-terminal HIS tag and N-terminal Flag tag, respectively, for production of PDE6A/6B dimer.”
as §3, §4

[5] = target: T5, PDE5A (Homo sapiens, UniProt O76074); experiment: PDE enzyme assay using [3H]cGMP as substrate, PDE5A; conditions: [3H]cGMP 80 nM; enzyme 0.002 nM; read-out: IC50 (nM) of Example 1, PDE5A
T5 construct: full-length human PDE1A (NP_001003683.1), PDE1C (NP_005011.1), PDE5A (NP_001074.2); His (N); made in house; host or cells: Sf9 (baculovirus, pFastBac1)
From the text: as §1, with “tag.” for “tag. The nucleotide sequences encoding full-length human PDE6A (NP_000431.2) and PDE6B (AAH00249.1) are inserted into pFastBacDual (Invitrogen) vector with an N-terminal HIS tag and N-terminal Flag tag, respectively, for production of PDE6A/6B dimer.”
as §3, §4

[6] = target: T6, PDE3A (catalytic domain) (Homo sapiens, UniProt Q14432); experiment: PDE enzyme assay using [3H]cAMP as substrate, PDE3A; conditions: [3H]cAMP 47 nM, enzyme 0.008 nM, read-out: IC50 (nM) of Example 1, PDE3A
T6 construct: catalytic domain (residue 641-1141) of PDE3A (NP_000912.3); His (C); made in house; host or cells: Sf9 (baculovirus, pFastBac1)
T6 sequence (Q14432 641-1141): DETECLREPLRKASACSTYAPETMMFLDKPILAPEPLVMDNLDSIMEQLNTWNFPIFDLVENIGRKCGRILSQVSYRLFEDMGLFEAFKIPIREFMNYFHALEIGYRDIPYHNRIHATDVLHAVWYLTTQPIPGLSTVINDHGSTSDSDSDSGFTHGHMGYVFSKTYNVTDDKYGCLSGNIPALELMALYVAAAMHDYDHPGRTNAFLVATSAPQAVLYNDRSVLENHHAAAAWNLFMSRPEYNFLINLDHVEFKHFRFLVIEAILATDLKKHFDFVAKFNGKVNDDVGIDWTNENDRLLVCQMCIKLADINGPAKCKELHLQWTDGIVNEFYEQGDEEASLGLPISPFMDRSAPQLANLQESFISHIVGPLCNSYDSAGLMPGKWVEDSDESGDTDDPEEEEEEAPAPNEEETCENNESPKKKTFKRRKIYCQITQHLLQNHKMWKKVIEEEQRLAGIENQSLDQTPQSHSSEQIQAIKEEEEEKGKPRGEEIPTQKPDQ
From the text: as §1, with “tag.” for “tag. The nucleotide sequences encoding full-length human PDE6A (NP_000431.2) and PDE6B (AAH00249.1) are inserted into pFastBacDual (Invitrogen) vector with an N-terminal HIS tag and N-terminal Flag tag, respectively, for production of PDE6A/6B dimer.”
as §3
(§5) The following phosphodiesterase activities are measured using [^3H]cAMP as reaction substrate: PDE3A (catalytic domain), PDE4D, PDE7B and PDE8A. […]

[7] = target: T7, PDE1A (Homo sapiens, UniProt P54750); experiment: Ca2+-calmodulin dependent PDE enzyme assay (SPA), PDE1A; conditions: [3H]cAMP 47 nM; enzyme 0.25 nM; Ca2+/calmodulin buffer pH 7.5; read-out: IC50 (nM) of Example 1, PDE 1A
T7 construct: full-length human PDE1A (NP_001003683.1); His (N); made in house; host or cells: Sf9 (baculovirus, pFastBac1)
From the text: as §1, §2

[8] = target: T8, PDE6AB (PDE6A/6B dimer) (Homo sapiens, UniProt P16499+P35913); experiment: PDE enzyme assay using [3H]cGMP as substrate, PDE6AB; conditions: [3H]cGMP 80 nM; enzyme 5 nM; read-out: IC50 (nM) of Example 1, PDE 6AB
T8 construct: full-length human PDE6A (NP_000431.2); full-length human PDE6A (NP_000431.2) and PDE6B (AAH00249.1); His (N); Flag (N); made in house; host or cells: Sf9 (baculovirus, pFastBacDual)
T8 sequence (P16499 whole entry): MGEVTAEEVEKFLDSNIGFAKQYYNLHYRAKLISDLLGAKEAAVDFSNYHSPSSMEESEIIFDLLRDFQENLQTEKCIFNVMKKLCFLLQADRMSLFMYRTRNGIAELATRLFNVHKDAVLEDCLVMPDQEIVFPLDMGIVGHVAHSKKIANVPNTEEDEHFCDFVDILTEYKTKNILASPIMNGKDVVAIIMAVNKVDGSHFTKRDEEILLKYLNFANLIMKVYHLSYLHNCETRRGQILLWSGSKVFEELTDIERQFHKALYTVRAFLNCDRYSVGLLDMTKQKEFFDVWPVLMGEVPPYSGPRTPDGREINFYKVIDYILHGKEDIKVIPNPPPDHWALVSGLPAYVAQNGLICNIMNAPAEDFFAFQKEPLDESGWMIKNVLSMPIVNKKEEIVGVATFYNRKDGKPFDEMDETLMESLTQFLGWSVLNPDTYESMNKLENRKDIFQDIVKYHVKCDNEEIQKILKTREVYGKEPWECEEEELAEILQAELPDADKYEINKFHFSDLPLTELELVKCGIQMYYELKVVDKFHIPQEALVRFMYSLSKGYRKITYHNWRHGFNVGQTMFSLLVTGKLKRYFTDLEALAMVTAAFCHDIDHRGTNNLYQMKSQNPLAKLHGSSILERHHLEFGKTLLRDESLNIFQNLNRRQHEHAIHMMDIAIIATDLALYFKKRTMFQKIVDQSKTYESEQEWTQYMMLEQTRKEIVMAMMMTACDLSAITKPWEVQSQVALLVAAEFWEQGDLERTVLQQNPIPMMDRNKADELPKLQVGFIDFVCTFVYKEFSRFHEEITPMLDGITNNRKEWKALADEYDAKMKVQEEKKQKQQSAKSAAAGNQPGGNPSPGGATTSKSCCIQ
T8 sequence (P35913 1-853 isoform P35913-2): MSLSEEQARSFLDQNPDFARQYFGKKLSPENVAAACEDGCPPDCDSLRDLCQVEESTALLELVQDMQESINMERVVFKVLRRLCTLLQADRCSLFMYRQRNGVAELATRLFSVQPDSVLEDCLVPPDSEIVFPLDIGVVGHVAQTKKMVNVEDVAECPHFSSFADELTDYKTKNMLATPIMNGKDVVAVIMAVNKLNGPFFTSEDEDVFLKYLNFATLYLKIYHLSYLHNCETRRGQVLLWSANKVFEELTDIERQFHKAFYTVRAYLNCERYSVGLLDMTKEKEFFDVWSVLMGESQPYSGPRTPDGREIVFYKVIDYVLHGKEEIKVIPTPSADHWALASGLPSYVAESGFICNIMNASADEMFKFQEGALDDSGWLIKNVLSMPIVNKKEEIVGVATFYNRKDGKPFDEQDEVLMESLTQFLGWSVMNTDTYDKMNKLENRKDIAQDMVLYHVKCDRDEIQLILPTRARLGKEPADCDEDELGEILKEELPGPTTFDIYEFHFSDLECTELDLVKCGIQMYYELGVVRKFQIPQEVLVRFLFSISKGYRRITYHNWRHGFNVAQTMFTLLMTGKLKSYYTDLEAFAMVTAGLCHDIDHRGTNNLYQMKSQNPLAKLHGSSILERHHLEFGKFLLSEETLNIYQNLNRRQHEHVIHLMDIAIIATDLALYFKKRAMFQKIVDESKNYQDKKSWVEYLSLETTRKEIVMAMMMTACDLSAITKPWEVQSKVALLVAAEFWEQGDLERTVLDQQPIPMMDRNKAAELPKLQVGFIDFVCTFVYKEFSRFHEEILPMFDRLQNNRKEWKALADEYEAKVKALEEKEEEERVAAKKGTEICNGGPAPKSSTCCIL
From the text: as §1, with “tag.” for “tag. The nucleotide sequences encoding full-length human PDE6A (NP_000431.2) and PDE6B (AAH00249.1) are inserted into pFastBacDual (Invitrogen) vector with an N-terminal HIS tag and N-terminal Flag tag, respectively, for production of PDE6A/6B dimer.”
as §3, §4

[9] = target: T9, PDE8A (Homo sapiens, UniProt O60658); experiment: PDE enzyme assay using [3H]cAMP as substrate, PDE8A; conditions: [3H]cAMP 47 nM; enzyme 0.06 nM; read-out: IC50 (nM) of Example 1, PDE8A
T9 construct: full-length human PDE8A (NP_002596.1); Flag (N); made in house; host or cells: Sf9 (baculovirus, pFastBac1)
From the text: as §1, with “tag.” for “tag. The nucleotide sequences encoding full-length human PDE6A (NP_000431.2) and PDE6B (AAH00249.1) are inserted into pFastBacDual (Invitrogen) vector with an N-terminal HIS tag and N-terminal Flag tag, respectively, for production of PDE6A/6B dimer.”
as §3, §5

[10] = target: T10, PDE7B (Homo sapiens, UniProt Q9NP56); experiment: PDE enzyme assay using [3H]cAMP as substrate, PDE7B; conditions: [3H]cAMP 47 nM; enzyme 0.5 nM; read-out: IC50 (nM) of Example 1, PDE7B
T10 construct: full-length human PDE1A (NP_001003683.1), PDE1C (NP_005011.1), PDE5A (NP_001074.2), PDE7B (NP_061818.1); His (N); made in house; host or cells: Sf9 (baculovirus, pFastBac1)
T10 sequence (Q9NP56 whole entry): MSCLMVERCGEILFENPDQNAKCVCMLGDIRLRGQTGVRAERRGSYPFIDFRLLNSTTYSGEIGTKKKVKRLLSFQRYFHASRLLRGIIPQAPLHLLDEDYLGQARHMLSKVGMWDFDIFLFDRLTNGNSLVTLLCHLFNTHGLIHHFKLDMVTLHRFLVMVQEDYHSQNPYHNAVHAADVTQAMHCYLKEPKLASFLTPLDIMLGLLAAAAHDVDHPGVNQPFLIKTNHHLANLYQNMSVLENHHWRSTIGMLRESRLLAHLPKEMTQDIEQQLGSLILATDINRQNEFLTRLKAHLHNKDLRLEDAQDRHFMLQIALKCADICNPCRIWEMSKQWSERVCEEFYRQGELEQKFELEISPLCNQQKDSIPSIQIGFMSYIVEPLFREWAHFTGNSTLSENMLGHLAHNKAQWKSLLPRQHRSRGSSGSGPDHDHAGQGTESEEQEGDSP
From the text: as §1, with “tag.” for “tag. The nucleotide sequences encoding full-length human PDE6A (NP_000431.2) and PDE6B (AAH00249.1) are inserted into pFastBacDual (Invitrogen) vector with an N-terminal HIS tag and N-terminal Flag tag, respectively, for production of PDE6A/6B dimer.”
as §3, §5

[11] = target: T11, PDE9A (Homo sapiens, UniProt O76083); experiment: PDE enzyme assay using [3H]cGMP as substrate, PDE9A; conditions: [3H]cGMP 20 nM; enzyme 1 nM; read-out: IC50 (nM) of Example 1, PDE9A
T11 construct: full-length human PDE1A (NP_001003683.1), PDE1C (NP_005011.1), PDE5A (NP_001074.2), PDE7B (NP_061818.1) and PDE9A (NP_002597.1); His (N); made in house; host or cells: Sf9 (baculovirus, pFastBac1)
T11 sequence (O76083 whole entry): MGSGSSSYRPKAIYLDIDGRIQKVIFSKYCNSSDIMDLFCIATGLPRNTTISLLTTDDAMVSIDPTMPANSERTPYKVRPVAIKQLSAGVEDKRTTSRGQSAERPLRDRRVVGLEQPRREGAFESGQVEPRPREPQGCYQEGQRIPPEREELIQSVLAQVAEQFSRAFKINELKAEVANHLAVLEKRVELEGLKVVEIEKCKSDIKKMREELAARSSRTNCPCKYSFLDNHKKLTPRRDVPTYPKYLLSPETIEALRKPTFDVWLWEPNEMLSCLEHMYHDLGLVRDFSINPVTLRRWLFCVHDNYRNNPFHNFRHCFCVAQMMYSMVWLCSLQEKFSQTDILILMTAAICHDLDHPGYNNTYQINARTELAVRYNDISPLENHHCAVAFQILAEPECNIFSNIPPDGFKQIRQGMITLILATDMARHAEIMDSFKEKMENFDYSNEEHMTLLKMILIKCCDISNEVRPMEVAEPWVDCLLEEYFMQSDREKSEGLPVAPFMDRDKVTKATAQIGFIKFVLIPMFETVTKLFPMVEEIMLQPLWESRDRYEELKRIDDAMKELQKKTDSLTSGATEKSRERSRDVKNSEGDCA
From the text: as §1, with “tag.” for “tag. The nucleotide sequences encoding full-length human PDE6A (NP_000431.2) and PDE6B (AAH00249.1) are inserted into pFastBacDual (Invitrogen) vector with an N-terminal HIS tag and N-terminal Flag tag, respectively, for production of PDE6A/6B dimer.”
as §3, §4

[12] = target: T12, PDE10A (Homo sapiens, UniProt Q9Y233); experiment: PDE enzyme assay using [3H]cGMP as substrate, PDE10A; conditions: [3H]cGMP 80 nM; enzyme 0.03 nM; read-out: IC50 (nM) of Example 1, PDE10A
T12 construct: full-length human PDE10A (AAD32595.1); Flag-His (C); made in house; host or cells: Sf9 (baculovirus, pFastBac1)
From the text: as §1, with “tag.” for “tag. The nucleotide sequences encoding full-length human PDE6A (NP_000431.2) and PDE6B (AAH00249.1) are inserted into pFastBacDual (Invitrogen) vector with an N-terminal HIS tag and N-terminal Flag tag, respectively, for production of PDE6A/6B dimer.”
as §3, §4

[13] = target: T13, PDE4D (Homo sapiens, UniProt Q08499); experiment: PDE enzyme assay using [3H]cAMP as substrate, PDE4D; conditions: [3H]cAMP 47 nM; enzyme 0.021 nM; read-out: IC50 (nM) of Example 1, PDE4D
T13 construct: full-length human PDE4D (NP_006194.2); His (C); made in house; host or cells: Sf9 (baculovirus, pFastBac1)
T13 sequence (Q08499 1-673 isoform Q08499-2): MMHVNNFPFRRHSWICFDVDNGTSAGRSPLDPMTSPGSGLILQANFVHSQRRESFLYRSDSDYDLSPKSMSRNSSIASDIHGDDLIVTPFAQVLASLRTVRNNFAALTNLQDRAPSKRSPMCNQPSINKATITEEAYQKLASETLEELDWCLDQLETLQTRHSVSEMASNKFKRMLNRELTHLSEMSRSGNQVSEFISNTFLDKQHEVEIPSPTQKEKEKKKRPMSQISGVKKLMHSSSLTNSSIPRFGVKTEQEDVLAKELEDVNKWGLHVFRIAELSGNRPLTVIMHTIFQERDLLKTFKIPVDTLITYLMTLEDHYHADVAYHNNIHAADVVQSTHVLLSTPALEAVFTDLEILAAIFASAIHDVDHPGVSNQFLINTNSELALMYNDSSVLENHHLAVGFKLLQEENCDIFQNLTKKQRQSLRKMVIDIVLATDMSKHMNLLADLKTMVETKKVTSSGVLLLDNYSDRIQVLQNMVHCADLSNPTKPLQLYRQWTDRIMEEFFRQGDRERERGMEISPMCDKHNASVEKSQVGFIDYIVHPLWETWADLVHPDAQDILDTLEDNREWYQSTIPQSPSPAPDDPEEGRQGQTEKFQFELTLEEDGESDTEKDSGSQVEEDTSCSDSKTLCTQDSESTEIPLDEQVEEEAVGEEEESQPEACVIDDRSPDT
From the text: as §1, with “tag.” for “tag. The nucleotide sequences encoding full-length human PDE6A (NP_000431.2) and PDE6B (AAH00249.1) are inserted into pFastBacDual (Invitrogen) vector with an N-terminal HIS tag and N-terminal Flag tag, respectively, for production of PDE6A/6B dimer.”
as §3, §5

IC50 [1]: 4.91 nM
IC50 [2]: 3.05 nM
IC50 [3]: 2970 nM
IC50 [4]: > 10000 nM
IC50 [5]: > 10000 nM
IC50 [6]: > 100000 nM
IC50 [7]: 3.41 nM
IC50 [8]: > 10000 nM
IC50 [9]: > 10000 nM
IC50 [10]: 2180 nM
IC50 [11]: > 10000 nM
IC50 [12]: > 10000 nM
IC50 [13]: 7060 nM
SMILES: O=c1c2nnc(C3(C4CC4)CC3)n2c2c(n1CC1CC1)CCCC2 [Example 1, 1-(1-cyclopropylcyclopropyl)-5-(cyclopropylmethyl)-6,7,8,9-tetrahydro-[1,2,4]triazolo[4,3-a]quinoxalin-4-one]
